Experimental data: ChEMBL document CHEMBL1201862, “PubChem BioAssay data set” (2004)
Calls of active or inactive are those of the source. Unless noted, no cut-off for these calls is given here.

Columns and labels:
[1] = biological target: DNA dC->dU-editing enzyme APOBEC-3A (Homo sapiens, UniProt P31941); test: APOBEC3A DNA deaminase inhibitors, dose response, biochemical (AID 504722); format: functional
[2] = biological target: DNA dC->dU-editing enzyme APOBEC-3G (Homo sapiens, UniProt Q9HC16); test: Dose Response confirmation of small molecule APOBEC3G DNA Deaminase Inhibitors via a fluorescence-based single-stranded DNA deaminase assay. [Related pubchem assays (depositor defined):AID493012, AID493028]; format: functional
Sequence of DNA dC->dU-editing enzyme APOBEC-3G (Q9HC16 whole entry, the tested form may be a part): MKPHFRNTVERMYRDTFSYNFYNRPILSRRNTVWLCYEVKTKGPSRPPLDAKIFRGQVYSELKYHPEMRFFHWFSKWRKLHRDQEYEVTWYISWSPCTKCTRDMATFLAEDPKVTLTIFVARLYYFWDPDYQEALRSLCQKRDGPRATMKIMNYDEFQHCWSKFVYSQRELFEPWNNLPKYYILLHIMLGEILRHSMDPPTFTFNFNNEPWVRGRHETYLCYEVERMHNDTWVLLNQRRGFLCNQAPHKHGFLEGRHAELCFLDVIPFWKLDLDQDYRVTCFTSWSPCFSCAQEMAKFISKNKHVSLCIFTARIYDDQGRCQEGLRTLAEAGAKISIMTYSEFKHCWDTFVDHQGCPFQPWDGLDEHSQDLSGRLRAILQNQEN

Apelin receptor = Apelin receptor (Homo sapiens, UniProt P35414); test: APJ beta-arrestin recruitment antagonism, SAR follow-up, selectivity assay for CCR6 antagonist project, cell-based, luminescent, enzyme-fragment complementation (AID 588359); format: functional
Sequence of Apelin receptor (P35414 whole entry, the tested form may be a part): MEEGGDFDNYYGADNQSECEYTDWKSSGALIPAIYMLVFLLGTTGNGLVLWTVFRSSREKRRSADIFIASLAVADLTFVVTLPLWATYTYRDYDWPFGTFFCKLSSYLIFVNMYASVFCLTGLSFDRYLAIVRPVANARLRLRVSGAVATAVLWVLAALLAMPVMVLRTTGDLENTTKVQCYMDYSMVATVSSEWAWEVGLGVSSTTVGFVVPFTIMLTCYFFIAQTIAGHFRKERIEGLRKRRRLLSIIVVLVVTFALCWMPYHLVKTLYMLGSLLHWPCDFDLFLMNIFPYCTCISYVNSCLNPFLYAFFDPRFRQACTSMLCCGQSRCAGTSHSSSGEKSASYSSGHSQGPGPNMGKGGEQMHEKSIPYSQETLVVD

[3] = biological target: C-X-C chemokine receptor type 5 (Homo sapiens, UniProt P32302); test: CXCR5 receptor antagonists, SAR follow-up, selectivity assay for CCR6 antagonist project, cell-based, beta-arrestin, luminescence, CHO-K1 PathHunter (AID 540340); format: functional
Sequence of C-X-C chemokine receptor type 5 (P32302 whole entry): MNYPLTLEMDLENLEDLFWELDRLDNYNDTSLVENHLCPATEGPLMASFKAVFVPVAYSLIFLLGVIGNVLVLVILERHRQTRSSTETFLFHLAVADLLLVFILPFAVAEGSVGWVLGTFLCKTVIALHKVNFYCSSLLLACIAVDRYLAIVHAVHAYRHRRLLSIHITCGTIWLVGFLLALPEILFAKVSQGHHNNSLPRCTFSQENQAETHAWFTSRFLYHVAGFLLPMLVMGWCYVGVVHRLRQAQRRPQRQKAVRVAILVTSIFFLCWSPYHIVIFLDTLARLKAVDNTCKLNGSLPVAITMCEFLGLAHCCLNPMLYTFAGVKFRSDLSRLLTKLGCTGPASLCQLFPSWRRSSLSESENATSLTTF

[4] = biological target: C-C chemokine receptor type 6 (Homo sapiens, UniProt P51684); test: CCR6 receptor antagonists, SAR follow-up, cell-based, luminescent beta-arrestin readout (AID 540334); format: functional
Sequence of C-C chemokine receptor type 6 (P51684 whole entry): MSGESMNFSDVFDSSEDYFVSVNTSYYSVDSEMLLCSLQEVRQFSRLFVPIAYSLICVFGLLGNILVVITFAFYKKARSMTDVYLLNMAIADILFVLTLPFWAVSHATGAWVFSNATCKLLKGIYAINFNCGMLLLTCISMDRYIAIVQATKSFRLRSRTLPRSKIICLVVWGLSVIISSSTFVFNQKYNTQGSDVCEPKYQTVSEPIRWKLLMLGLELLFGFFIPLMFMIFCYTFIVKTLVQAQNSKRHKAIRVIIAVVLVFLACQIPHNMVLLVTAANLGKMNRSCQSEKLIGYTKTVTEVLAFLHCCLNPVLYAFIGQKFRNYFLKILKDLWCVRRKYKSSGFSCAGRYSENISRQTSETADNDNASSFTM

Tumor necrosis factor = Tumor necrosis factor (Homo sapiens, UniProt P01375); test: TNFa-triggered NF-kB activation inhibitors, SAR follow-up, cell-based, revised (AID 2337); format: functional
Sequence of Tumor necrosis factor (P01375 whole entry, the tested form may be a part): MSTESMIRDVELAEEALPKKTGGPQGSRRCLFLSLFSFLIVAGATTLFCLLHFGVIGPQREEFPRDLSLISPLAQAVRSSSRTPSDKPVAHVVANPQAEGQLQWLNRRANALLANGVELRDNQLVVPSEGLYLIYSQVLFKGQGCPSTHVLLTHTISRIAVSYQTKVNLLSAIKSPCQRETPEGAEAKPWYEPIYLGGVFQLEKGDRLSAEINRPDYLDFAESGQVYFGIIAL

[5] = biological target: T1, Nucleotide-binding oligomerization domain-containing protein 1 (Homo sapiens, UniProt Q9Y239); test: NOD1 signaling inhibitors, SAR follow-up, revised (AID 2333); format: functional
T1 sequence (Q9Y239 whole entry): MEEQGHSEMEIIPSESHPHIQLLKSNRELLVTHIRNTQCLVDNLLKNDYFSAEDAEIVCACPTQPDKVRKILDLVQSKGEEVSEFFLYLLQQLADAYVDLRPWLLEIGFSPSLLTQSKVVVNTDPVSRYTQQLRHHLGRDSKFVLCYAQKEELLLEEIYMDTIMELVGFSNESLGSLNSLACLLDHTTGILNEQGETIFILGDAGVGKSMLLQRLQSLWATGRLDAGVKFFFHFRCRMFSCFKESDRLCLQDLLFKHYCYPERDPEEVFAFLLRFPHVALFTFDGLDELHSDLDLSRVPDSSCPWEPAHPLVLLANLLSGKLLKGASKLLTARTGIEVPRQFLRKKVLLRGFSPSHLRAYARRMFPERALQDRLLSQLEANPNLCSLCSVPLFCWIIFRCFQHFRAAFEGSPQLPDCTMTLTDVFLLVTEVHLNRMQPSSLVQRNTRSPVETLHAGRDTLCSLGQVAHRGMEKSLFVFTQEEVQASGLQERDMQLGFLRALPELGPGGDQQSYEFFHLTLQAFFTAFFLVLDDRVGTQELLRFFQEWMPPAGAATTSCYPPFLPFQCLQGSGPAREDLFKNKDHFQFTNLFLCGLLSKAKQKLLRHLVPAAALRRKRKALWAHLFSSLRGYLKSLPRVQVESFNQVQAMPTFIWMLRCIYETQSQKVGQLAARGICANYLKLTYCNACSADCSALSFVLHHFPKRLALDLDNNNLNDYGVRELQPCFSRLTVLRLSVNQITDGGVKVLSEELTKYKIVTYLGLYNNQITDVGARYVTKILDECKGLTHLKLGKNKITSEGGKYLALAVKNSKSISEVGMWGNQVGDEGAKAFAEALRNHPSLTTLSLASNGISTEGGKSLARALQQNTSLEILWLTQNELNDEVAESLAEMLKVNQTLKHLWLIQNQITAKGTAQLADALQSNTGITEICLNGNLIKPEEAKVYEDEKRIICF

[6] = biological target: Luciferin 4-monooxygenase (Photinus pyralis, UniProt P08659); test: firefly luciferase enzyme inhibitors, dose response, biochemical, dry powder samples, plate reader (AID 588451)
Sequence of Luciferin 4-monooxygenase (P08659 whole entry): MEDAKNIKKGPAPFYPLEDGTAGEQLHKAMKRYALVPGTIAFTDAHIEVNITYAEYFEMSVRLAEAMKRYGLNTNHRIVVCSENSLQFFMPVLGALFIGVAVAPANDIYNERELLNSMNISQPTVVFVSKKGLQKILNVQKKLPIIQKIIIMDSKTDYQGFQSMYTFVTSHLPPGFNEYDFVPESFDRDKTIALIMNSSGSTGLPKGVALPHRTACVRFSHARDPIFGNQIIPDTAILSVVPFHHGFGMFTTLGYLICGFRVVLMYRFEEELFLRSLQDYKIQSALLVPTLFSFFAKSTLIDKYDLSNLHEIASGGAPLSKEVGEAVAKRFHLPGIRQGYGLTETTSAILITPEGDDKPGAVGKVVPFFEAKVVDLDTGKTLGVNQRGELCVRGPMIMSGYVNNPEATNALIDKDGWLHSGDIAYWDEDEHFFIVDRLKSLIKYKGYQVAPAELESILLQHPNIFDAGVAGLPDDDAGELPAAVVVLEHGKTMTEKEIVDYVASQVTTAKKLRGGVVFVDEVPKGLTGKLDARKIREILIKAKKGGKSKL

H4 [7] = test: inhibitors of control reporter signal in H4 cells – cell-based, plate reader, dry powder samples, counter-screen for prion reporter project, dose response (AID 540255); format: functional; settings: Homo sapiens
H4 [8] = test: Amyloid Precursor 5' UTR neuroblastoma cell reporter line Measured in Cell-Based System Using Plate Reader - 2078-04_Inhibitor_Dose_DryPowder_Activity. [Related pubchem assays (depositor defined):AID488894]; format: functional; settings: Homo sapiens
H4 [9] = test: Inhibitors of Prion Protein 5' UTR mRNA Measured in Cell-Based System Using Plate Reader - 2078-01_Inhibitor_Dose_DryPowder_Activity. [Related pubchem assays (depositor defined):AID488894]; format: functional; settings: Homo sapiens
HEK293 = test: cells; settings: Homo sapiens;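 note: cells exposed to compound for 14 hours overnight before viability readout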

Sequence of DNA dC->dU-editing enzyme APOBEC-3A (P31941 whole entry): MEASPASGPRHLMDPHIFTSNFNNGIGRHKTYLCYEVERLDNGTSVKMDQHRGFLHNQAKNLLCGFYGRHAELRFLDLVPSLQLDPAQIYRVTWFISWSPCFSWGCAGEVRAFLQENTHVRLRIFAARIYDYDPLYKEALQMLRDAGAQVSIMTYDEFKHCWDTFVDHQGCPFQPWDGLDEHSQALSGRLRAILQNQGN

O=C1C2C3C=CC(CO)(O3)C2C(=O)N1c1ccccc1-c1ccccc1 (configuration not stated)
IC50 [1]: > 100 µM (inactive)
IC50 [2]: 11.4 µM (active)
IC50 (Apelin receptor): > 66.6 µM (inactive)
IC50 [3]: 52.7 µM (inactive)
IC50 [4]: > 66.6 µM (inactive)

CC(C)(C)c1ccc(-c2nc3ccccc3s2)cc1
IC50 (Tumor necrosis factor): 246 nM (active)
IC50 [5]: 31.8 nM (active)
AC50 [6]: 25.8 µM (active)
AC50 (H4 [7]): 205 nM (active)
AC50 (H4 [8]): 2.26 nM (active)
AC50 (H4 [9]): 11 nM (active)
IC50 (HEK293): > 20 µM (inactive)
